ChEMBL document CHEMBL1201862, “PubChem BioAssay data set” (2004)
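Method: 48-hour compound exposure of cells in 96-well plates, five concentrations, linear interpolation of endpoints. The concentration for 50% growth inhibition is given as GI50.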 The source made the active and inactive calls. No stated cut-off is given here; in the data, active = GI50 up to about 1.1 µM and inactive = higher.

Experiments:
Assay in all cases: NCI-60 cell line screen, 48 h
[1] = tested on: Hs-578T
[2] = tested on: M19-MEL
[3] = tested on: UACC-62
[4] = tested on: HOP-18
[5] = tested on: SN12C
[6] = tested on: NCI-H522
[7] = tested on: CAKI-1
[8] = tested on: HL-60
[9] = tested on: COLO 205
[10] = tested on: NCI/ADR-RES
[11] = tested on: EKVX
[12] = tested on: UO-31
[13] = tested on: SK-MEL-2
[14] = tested on: MDA-MB-435
[15] = tested on: UACC-257
[16] = tested on: DLD-1
[17] = tested on: HCC 2998
[18] = tested on: XF498
[19] = tested on: Malme-3M
[20] = tested on: MOLT-4
[21] = tested on: IGROV-1
[22] = tested on: M14
[23] = tested on: SW-620
[24] = tested on: HT-29
[25] = tested on: SF-539
[26] = tested on: SF-295
[27] = tested on: RXF 393
[28] = tested on: OVCAR-5
[29] = tested on: SNB-19
[30] = tested on: LXFL 529
[31] = tested on: CCRF-CEM
[32] = tested on: T47D
[33] = tested on: ACHN
[34] = tested on: SF-268
[35] = tested on: SK-OV-3
[36] = tested on: NCI-H226
[37] = tested on: SNB-75
[38] = tested on: DU-145
[39] = tested on: HCT-15
[40] = tested on: 786-0
[41] = tested on: HOP-92
[42] = tested on: DMS-273
[43] = tested on: NCI-H460
[44] = tested on: A549
[45] = tested on: KM-20L2
[46] = tested on: NCI-H23
[47] = tested on: A498
[48] = tested on: SNB-78
[49] = tested on: MCF7
[50] = tested on: OVCAR-8
[51] = tested on: RPMI-8226
[52] = tested on: LOX IMVI
[53] = tested on: SK-MEL-28
[54] = tested on: SK-MEL-5
[55] = tested on: SR
[56] = tested on: DMS-114
[57] = tested on: PC-3
[58] = tested on: U-251
[59] = tested on: BT-549
[60] = tested on: MDA-N
[61] = tested on: K562
[62] = tested on: MDA-MB-231
[63] = tested on: OVCAR-4
[64] = tested on: HOP-62
[65] = tested on: TK-10
[66] = tested on: HCT-116
[67] = tested on: OVCAR-3
[68] = tested on: KM12
[69] = tested on: RXF 631

## Cc1ccc(C(=O)Nc2ccc(S(=O)(=O)O)c3cc(S(=O)(=O)O)cc(S(=O)(=O)O)c23)cc1NC(=O)c1cccc(NC(=O)Nc2cccc(C(=O)Nc3cc(C(=O)Nc4ccc(S(=O)(=O)O)c5cc(S(=O)(=O)O)cc(S(=O)(=O)O)c45)ccc3C)c2)c1 [SURAMIN]
[1]
  GI50: > 100 µM (inactive)
[2]
  GI50: 59.7 µM (inactive)
[3]
  GI50: 54.6 µM (inactive)
[4]
  GI50: > 52.4 µM (inactive)
[5]
  GI50: > 80.9 µM (inactive)
[6]
  GI50: 88.5 µM (inactive)
[7]
  GI50: 73.5 µM (inactive)
[8]
  GI50: 49.4 µM (inactive)
[9]
  GI50: > 72.9 µM (inactive)
[10]
  GI50: > 100 µM (inactive)
[11]
  GI50: > 69.5 µM (inactive)
[12]
  GI50: 39.4 µM (inactive)
[13]
  GI50: 58.9 µM (inactive)
[14]
  GI50: > 100 µM (inactive)
[15]
  GI50: > 100 µM (inactive)
[16]
  GI50: 97.5 µM (inactive)
[17]
  GI50: > 100 µM (inactive)
[18]
  GI50: 27 µM (inactive)
[19]
  GI50: > 83 µM (inactive)
[20]
  GI50: > 80 µM (inactive)
[21]
  GI50: 69.3 µM (inactive)
[22]
  GI50: 74.8 µM (inactive)
[23]
  GI50: 89.3 µM (inactive)
[24]
  GI50: 62.4 µM (inactive)
[25]
  GI50: > 100 µM (inactive)
[26]
  GI50: 69 µM (inactive)
[27]
  GI50: > 92.7 µM (inactive)
[28]
  GI50: > 50.6 µM (inactive)
[29]
  GI50: > 100 µM (inactive)
[30]
  GI50: > 100 µM (inactive)
[31]
  GI50: > 100 µM (inactive)
[32]
  GI50: > 100 µM (inactive)
[33]
  GI50: 97.9 µM (inactive)
[34]
  GI50: 66.2 µM (inactive)
[35]
  GI50: > 88.1 µM (inactive)
[36]
  GI50: > 63.8 µM (inactive)
[37]
  GI50: 48.2 µM (inactive)
[38]
  GI50: > 100 µM (inactive)
[39]
  GI50: 90.8 µM
[40]
  GI50: 74.6 µM (inactive)
[41]
  GI50: 54.5 µM (inactive)
[42]
  GI50: 39.8 µM (inactive)
[43]
  GI50: > 80.5 µM (inactive)
[44]
  GI50: 56.4 µM (inactive)
[45]
  GI50: 34.6 µM (inactive)
[46]
  GI50: 68.9 µM (inactive)
[47]
  GI50: > 84.3 µM (inactive)
[48]
  GI50: > 71.3 µM (inactive)
[49]
  GI50: > 100 µM (inactive)
[50]
  GI50: 74.8 µM (inactive)
[51]
  GI50: > 100 µM (inactive)
[52]
  GI50: 51.1 µM (inactive)
[53]
  GI50: > 91.6 µM (inactive)
[54]
  GI50: > 84.7 µM (inactive)
[55]
  GI50: 69.3 µM (inactive)
[56]
  GI50: 28.6 µM (inactive)
[57]
  GI50: > 100 µM (inactive)
[58]
  GI50: 77.3 µM (inactive)
[59]
  GI50: 95.7 µM (inactive)
[60]
  GI50: > 100 µM (inactive)
[61]
  GI50: > 93.5 µM (inactive)
[62]
  GI50: > 100 µM (inactive)
[63]
  GI50: 79.3 µM (inactive)
[64]
  GI50: > 100 µM (inactive)
[65]
  GI50: 32 µM (inactive)
[66]
  GI50: 76 µM (inactive)
[67]
  GI50: > 93.3 µM (inactive)
[68]
  GI50: > 67.5 µM (inactive)

## C[C@H](OCc1ccccc1)C(=O)N1CCS(=O)(=O)N2CCC[C@H]2C1=O
[2]
  GI50: > 100 µM (inactive)
[3]
  GI50: > 100 µM (inactive)
[4]
  GI50: > 100 µM (inactive)
[5]
  GI50: > 100 µM (inactive)
[6]
  GI50: > 100 µM (inactive)
[7]
  GI50: > 100 µM (inactive)
[8]
  GI50: > 100 µM (inactive)
[9]
  GI50: > 100 µM (inactive)
[11]
  GI50: > 100 µM (inactive)
[12]
  GI50: > 100 µM (inactive)
[69]
  GI50: > 100 µM (inactive)
[15]
  GI50: > 100 µM (inactive)
[16]
  GI50: > 100 µM (inactive)
[17]
  GI50: > 100 µM (inactive)
[19]
  GI50: > 100 µM (inactive)
[20]
  GI50: > 100 µM (inactive)
[21]
  GI50: > 100 µM (inactive)
[22]
  GI50: > 100 µM (inactive)
[23]
  GI50: > 100 µM (inactive)
[24]
  GI50: > 100 µM (inactive)
[25]
  GI50: > 100 µM (inactive)
[26]
  GI50: > 100 µM (inactive)
[27]
  GI50: > 100 µM (inactive)
[28]
  GI50: > 100 µM (inactive)
[29]
  GI50: > 100 µM (inactive)
[30]
  GI50: > 100 µM (inactive)
[31]
  GI50: > 100 µM (inactive)
[33]
  GI50: > 100 µM (inactive)
[34]
  GI50: > 100 µM (inactive)
[35]
  GI50: > 100 µM (inactive)
[36]
  GI50: > 100 µM (inactive)
[37]
  GI50: > 100 µM (inactive)
[39]
  GI50: > 100 µM
[40]
  GI50: > 100 µM (inactive)
[41]
  GI50: > 100 µM (inactive)
[43]
  GI50: > 100 µM (inactive)
[44]
  GI50: > 100 µM (inactive)
[45]
  GI50: > 100 µM (inactive)
[46]
  GI50: > 100 µM (inactive)
[47]
  GI50: > 100 µM (inactive)
[48]
  GI50: > 100 µM (inactive)
[50]
  GI50: > 100 µM (inactive)
[51]
  GI50: > 100 µM (inactive)
[52]
  GI50: > 100 µM (inactive)
[53]
  GI50: > 100 µM (inactive)
[54]
  GI50: > 100 µM (inactive)
[55]
  GI50: > 100 µM (inactive)
[56]
  GI50: > 100 µM (inactive)
[58]
  GI50: > 100 µM (inactive)
[61]
  GI50: > 100 µM (inactive)
[63]
  GI50: > 100 µM (inactive)
[64]
  GI50: > 100 µM (inactive)
[65]
  GI50: > 100 µM (inactive)
[66]
  GI50: > 100 µM (inactive)
[67]
  GI50: > 100 µM (inactive)
[68]
  GI50: > 100 µM (inactive)
